Results reported in patent US7744921B2, “Liposome loading with metal ions” (Celator Pharmaceuticals, Inc., priority 2001, dated 2010).
Blank lines part the entries; values can stand above or below the compound they belong to.

Key:
[1] = Effect of buffer composition on precipitation of metal ion (20 mM histidine, triethanolamine to pH 7.4, visual inspection); format: physicochemical; set-up: key: ppt: represents that the formation of a precipitate occurred after the addition of triethanolamine within a time course of 10 minutes; no ppt: represents that the formation of a precipitate did not occur after addition of triethanolamine to achieve a pH of 7.4 and within a time course of 10 minutes; conditions: pH 7.4, 10 minutes
[2] = Precipitation of MnSO4 in pH 7.4 HEPES buffer (metal compatible solution); format: physicochemical; conditions: 300 mM solution of MnSO4 in pH 7.4 HEPES buffer
Description: Preferably, the metal solution should be clear and soluble, free of aggregation, precipitation or flocculation for at least about 4 hours. By way of example, a 300 mM solution of MnSO4 in pH 7.4 HEPES buffer as described in Cheung, et al. [supra] is not a metal compatible solution as it produces an obvious brown precipitate of Mn(OH)2 comprising approximately 6-7 molar % of the manganese added to the solution.
An alternative preferred method of determining whether a metal solution is metal compatible is by centrifugation (e.g. 100 ml sample at 1000 rpm for 10 minutes) to collect any precipitate, measuring the amount of precipitate collected and determining the proportion of the metal added to the original solution present in the precipitate. The amount of metal in the precipitate should not exceed about 1 molar % of the amount of metal added to the original solution.

[3] = Drug-to-lipid ratio of passively encapsulated first drug before/after loading of second drug; conditions: DSPC/DSPG (80:20)
Description: Prior to measurement of absorbance, liposomes were solubilized in a solution containing Triton X-100.
Samples were extruded and external buffers exchanged into SHE, pH 7.4, using a hand-held tangential flow dialysis column. […] Atomic absorption spectrometry (AA) was used to determine carboplatin concentrations and absorbance at 370 nm was measured to determine irinotecan concentrations.

[4] = Active (metal-based, citrate or ionophore) loading of drug into liposomes; spin column, drug-to-lipid ratio; format: physicochemical; conditions: for loading efficiency: 300 mM MnSO4, 37° C.
Description: Lipids were dissolved in chloroform solution and subsequently dried under a stream of nitrogen gas and placed in a vacuum pump to remove solvent. Unless otherwise specified, trace levels of radioactive lipid 3H-CHE were added to quantify lipid during the formulation process. The resulting lipid film was placed under high vacuum for a minimum of 2 hours. The lipid film was hydrated in the solution indicated to form multilamellar vesicles (MLVs). The resulting preparation was extruded 10 times through stacked polycarbonate filters with an extrusion apparatus (Lipex Biomembranes, Vancouver, BC) to achieve a mean liposome size between 80 and 150 nm. All constituent lipids of liposomes are reported in mole %.
At various time points after initiation of drug loading, aliquots were removed and passed through a Sephadex G-50 spin column to separate free from encapsulated drug. To a specified volume of eluant, Triton X-100 or N-ocyl beta-D-glucopyranoside (OGP) was added to solubilize the liposomes. Following addition of detergent, the mixture was heated to the cloud point of the detergent and allowed to cool to room temperature before measurement of the absorbance or fluorescence. Drug concentrations were calculated by comparison to a standard curve.
In order to determine whether copper loading of irinotecan in the absence of a pH gradient could occur using a cholesterol-free formulation, DSPC/DSPG (80:20 mole ratio) liposomes containing copper(II) gluconate were prepared with an external and internal pH of 7.4. […] The lipid films were hydrated in 100 mM Cu(II) gluconate adjusted to pH 7.4 with triethanolamine (TEA) and extruded at 70° C. […] Irinotecan was added to the liposome preparation at a 0.1:1 drug-to-lipid mole ratio and incubated at 50° C. The extent of drug loading was determined as described in the methods by measuring absorbance at 370 nm and lipid levels were determined by liquid scintillation counting.
Loading of daunorubicin into DSPC/DSPG (90:10 mole ratio) liposomes containing encapsulated CuSO4 buffered to pH 7.4 was also investigated. […] A solution of 150 mM CuSO4, 20 mM histidine (adjusted to pH 7.4 using TEA), was employed as the hydration medium and MLVs were extruded at 70° C. […] Daunorubicin was loaded at a 0.1:1 drug/lipid weight ratio. A drug-to-lipid ratio at various time points during loading was determined by measuring absorbance at 480 nm after solubilization in detergent to quantify daunorubicin as described; lipid levels were determined by liquid scintillation counting.
The liposomes were prepared as described in the methods by hydrating lipid films in a solution of 100 mM copper(II) gluconate adjusted to pH 7.4 with TEA. Liposomes were extruded at 65° C. and the external buffer of the liposomes was exchanged to SHE, pH 7.4 by tangential flow dialysis. Liposomes were incubated with irinotecan at a 0.1:1 drug-to-lipid weight ratio at 50° C. and the extent of drug loading was determined as described by measuring absorbance at 370 nm after solubilization by detergent.
In addition to copper loading, loading of drug using MnSO4 containing liposomes in the absence of a pH gradient was also investigated. […] Lipids films were prepared as described and hydrated in 300 mM MnSO4 buffered to pH 7.4 with 20 mM imidazole (initial pH was adjusted to 7.4 with concentrated HCl) and extrusion was carried out at 70° C. The samples were run down a Sephadex G-50 column to exchange the exterior buffer with SHE, pH 7.4.

[5] = as above; format: physicochemical; conditions: for sequential loading of two drugs into a single liposome (in words): 300 mM CuSO4, 60° C., irinotecan 0.2:1 then doxorubicin 0.15:1 mole ratio
[6] = 150 mM metal in 20 mM histidine
[7] = 300 mM metal in 20 mM histidine
[8] = DPPC/DSPE-PEG2000 (95:5), pH gradient citrate loading (300 mM citrate, pH 4.0), 37° C.

Compound: [Cd] [Cadmium]
precipitation after addition of triethanolamine: Chloride [1, 6]: ppt | precipitation after addition of triethanolamine: Sulfate [1, 6]: no ppt | precipitation after addition of triethanolamine: Chloride [1, 7]: ppt | precipitation after addition of triethanolamine: Sulfate [1, 7]: no ppt

Compound: [Mn+2] [Manganese]
precipitation after addition of triethanolamine: Chloride [1, 6]: ppt | precipitation after addition of triethanolamine: Sulfate [1, 6]: no ppt | precipitation after addition of triethanolamine: Chloride [1, 7]: ppt | precipitation after addition of triethanolamine: Sulfate [1, 7]: no ppt

Compound: O=S(=O)([O-])[O-].[Mn+2] [MnSO4 in pH 7.4 HEPES buffer, MnSO4]
proportion of added manganese in Mn(OH)2 precipitate [2]: 6-7 molar %

Compound: N.N.O=C([O-])C1(C(=O)[O-])CCC1.[Pt+2] [carboplatin]
carboplatin drug-to-lipid weight ratio after loading of irinotecan ([3]; 150 mM CuSO4 pH 7.4, irinotecan loaded at 60° C.): 0.025 | initial carboplatin drug-to-lipid weight ratio ([3]; 150 mM CuSO4 pH 7.4, passively encapsulated): 0.030

Compound: Cobalt
precipitation after addition of triethanolamine: Chloride [1, 6]: no ppt | precipitation after addition of triethanolamine: Sulfate [1, 6]: no ppt | precipitation after addition of triethanolamine: Chloride [1, 7]: no ppt | precipitation after addition of triethanolamine: Sulfate [1, 7]: no ppt

Compound: Copper
precipitation after addition of triethanolamine: Chloride [1, 6]: no ppt | precipitation after addition of triethanolamine: Sulfate [1, 6]: no ppt | precipitation after addition of triethanolamine: Chloride [1, 7]: no ppt | precipitation after addition of triethanolamine: Nitrate [1, 7]: no ppt | precipitation after addition of triethanolamine: Sulfate [1, 7]: no ppt

Continued, in another order:

time to essentially complete loading ([4]; DMPC/Chol (55:45), 300 mM citrate pH 3.5, external HBS, 60° C., weight ratio 0.2:1): ≤ 5 min | loading efficiency ([4]; DPPC/DSPE-PEG2000 (95:5), initial drug/lipid weight ratio 0.1:1): > 95% | loading efficiency ([4]; DPPC/DSPE-PEG2000 (95:5), initial drug/lipid weight ratio 0.2:1): > 90% | added drug encapsulated ([4]; DSPC/Chol (55:45), 300 mM CoCl2, SHE pH 7.5, weight ratio 0.1:1, 60° C., within 10 minutes): > 90% | leakage during vincristine encapsulation (in words) ([4]; DSPC/Chol (55:45), 300 mM MnSO4, doxorubicin preloaded at 0.2:1 wt/wt, vincristine loading at 50° C.): no significant leakage | accumulation relative to MnSO4 and citrate loading (in words) ([5]; DMPC/Chol (55:45), 300 mM MnCl2, external SHE pH 7.5, 60° C., weight ratio 0.2:1): less complete | time to essentially complete loading ([5]; DMPC/Chol (55:45), 300 mM MnSO4, external SHE pH 7.5, 60° C., weight ratio 0.2:1): ≤ 5 min | loading efficiency ([5]; DPPC/DSPE-PEG2000 (95:5), 300 mM MnSO4, 37° C., initial drug/lipid weight ratio 0.3:1): > 80% | maximum drug-to-lipid weight ratio achieved [5, 8]: < 0.075 | sequential loading of two drugs into a single liposome (in words) ([5]; DSPC/Chol (55:45)): efficiently loaded
Compound: COc1cccc2c1C(=O)c1c(O)c3c(c(O)c1C2=O)C[C@@](O)(C(=O)CO)C[C@@H]3O[C@H]1C[C@H](N)[C@H](O)[C@H](C)O1 [doxorubicin]
encapsulation efficiency as doxorubicin/lipid weight ratio increased from 0.1 to 0.3 (in words) [4, 8]: substantial reduction in encapsulation efficiency

drug accumulation ([5]; DSPC/DSPE-PEG2000 (95:5), 300 mM CuSO4, SHE pH 7.4, weight ratio 0.2:1, 60° C., within 5 minutes): > 95%
Compound: COc1cccc2c1C(=O)c1c(O)c3c(c(O)c1C2=O)C[C@@](O)(C(=O)CO)C[C@@H]3O[C@H]1C[C@H](N)[C@@H](O)[C@H](C)O1 [epirubicin]
loading (in words) ([4]; DSPC/DSPE-PEG2000 (95:5), 300 mM MnSO4, 20 mM imidazole pH 7.4 internal, SHE pH 7.4 external, no pH gradient, 60° C., weight ratio 0.2:1): efficient encapsulation of drug occurred at each time point measured

time to almost complete loading ([4]; DPPC/Chol (55:45), 100 mM Cu(II) gluconate pH 7.4 internal, SHE pH 7.4 external, no pH gradient, 50° C., weight ratio 0.1:1): about 60 minutes | loading complete ([4]; DSPC/DSPE-PEG2000 (95:5), 300 mM MnSO4, SHE pH 7.4, 60° C., weight ratio 0.1:1, 30-minute time point): 10% | time to essentially complete loading ([4]; DSPC/DSPG (80:20) liposomes, 100 mM Cu(II) gluconate pH 7.4 (TEA) internal, SHE pH 7.4 external, no pH gradient, 50° C., drug-to-lipid mole ratio 0.1:1): ≤ 5 min | loading after chelation column versus after exchange into EDTA-containing solution (in words) ([4]; DSPC/DSPG (80:20), 150 mM copper gluconate pH 7.4, 37, 50 and 60° C., weight ratio 0.1:1): comparable | sequential loading of two drugs into a single liposome (in words) ([5]; DSPC/Chol (55:45)): efficiently loaded | encapsulation ([5]; DSPC/Chol (55:45), 300 mM CuSO4, SHE pH 7.5, drug-to-lipid mole ratio 0.2:1, 60° C., loaded first): approximately 100% | loading ([5]; DSPC/DSPE-PEG2000 (95:5), 300 mM CuSO4, SHE pH 7.4, 60° C., weight ratio 0.1:1, within 5 minutes): greater than 95% | loading (in words) ([5]; DSPC/DSPG (80:20), 150 mM CuSO4 pH 7.4, exchanged into solution not containing a chelating agent, 37, 50 and 60° C., weight ratio 0.1:1): reduced rate | loading (in words) ([5]; DSPC/DSPG (80:20), 150 mM CuSO4 pH 7.4, passed through Chelex-100 column, 37, 50 and 60° C., weight ratio 0.1:1): enhanced | loading (in words) ([5]; FUDR-containing DSPC/Chol/DSPG (70:10:20), 100 mM Cu(II) gluconate, 220 mM TEA pH 7.4, external HBS or sucrose/HEPES pH 7.4, 50° C., mole ratio 0.1:1): efficiently loads | loading (in words) ([5]; carboplatin-containing DSPC/DSPG (80:20), 150 mM CuSO4 pH 7.4, SHE pH 7.4 external, 60° C., weight ratio 0.1:1): loads to a high degree
Compound: CCc1c2c(nc3ccc(OC(=O)N4CCC(N5CCCCC5)CC4)cc13)-c1cc3c(c(=O)n1C2)COC(=O)[C@]3(O)CC [irinotecan]
loading (in words) ([5]; FUDR-containing DSPC/DSPG (85:15), 100 mM Cu(II) gluconate, 220 mM TEA pH 7.4, external 300 mM sucrose, 20 mM HEPES pH 7.4, 50° C., mole ratio 0.1:1): efficient loading of the drug occurred throughout the time course of the experiment

loading complete ([5]; DSPC/Chol (55:45), 300 mM CuSO4, SHE pH 7.4, weight ratio 0.1:1, 37° C., within 30 minutes): > 95%
Compound: CC[C@@]1(O)C(=O)OCc2c1cc1n(c2=O)Cc2cc3c(CN(C)C)c(O)ccc3nc2-1 [topotecan]

incubation time to near maximum encapsulation ([4]; DSPC/Chol (55:45), 300 mM MnSO4, preloaded with doxorubicin, A23187 ionophore-mediated loading, 50° C., weight ratio 0.05:1): 40 min
Compound: CC[C@]1(O)C[C@H]2CN(CCc3c([nH]c4ccccc34)[C@@](C(=O)OC)(c3cc4c(cc3OC)N(C=O)[C@H]3[C@@](O)(C(=O)OC)[C@H](OC(C)=O)[C@]5(CC)C=CCN6CC[C@]43[C@@H]65)C2)C1 [vincristine]

precipitation after addition of triethanolamine: Chloride [1, 6]: ppt | precipitation after addition of triethanolamine: Sulfate [1, 6]: ppt | precipitation after addition of triethanolamine: Chloride [1, 7]: ppt | precipitation after addition of triethanolamine: Sulfate [1, 7]: ppt
Compound: Zinc
